The text below walks through data of US7674801B2 (AstraZeneca AB, priority 2006, dated 2010).

S. aureus (SAU) GyrB ATPase, sequence (P0A0K8 whole entry): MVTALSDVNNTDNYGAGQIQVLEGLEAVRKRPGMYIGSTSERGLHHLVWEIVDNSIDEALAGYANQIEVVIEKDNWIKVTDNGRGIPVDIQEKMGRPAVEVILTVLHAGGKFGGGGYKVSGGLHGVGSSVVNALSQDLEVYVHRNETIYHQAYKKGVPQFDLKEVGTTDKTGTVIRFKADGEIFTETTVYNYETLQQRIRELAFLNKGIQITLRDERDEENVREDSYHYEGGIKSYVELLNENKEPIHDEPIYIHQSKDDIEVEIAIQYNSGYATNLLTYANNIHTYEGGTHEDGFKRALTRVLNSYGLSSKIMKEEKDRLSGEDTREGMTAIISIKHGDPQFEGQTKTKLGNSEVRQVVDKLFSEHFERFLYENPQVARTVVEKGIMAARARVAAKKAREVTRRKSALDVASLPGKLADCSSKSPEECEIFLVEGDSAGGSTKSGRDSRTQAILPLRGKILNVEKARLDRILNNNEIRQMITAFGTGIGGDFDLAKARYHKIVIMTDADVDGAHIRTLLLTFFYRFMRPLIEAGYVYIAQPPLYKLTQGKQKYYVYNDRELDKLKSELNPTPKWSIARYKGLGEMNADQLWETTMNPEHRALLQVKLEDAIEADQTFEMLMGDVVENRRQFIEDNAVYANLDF
S. aureus (SAU) GyrB ATPase, sequence (P0AES4 whole entry, further chain): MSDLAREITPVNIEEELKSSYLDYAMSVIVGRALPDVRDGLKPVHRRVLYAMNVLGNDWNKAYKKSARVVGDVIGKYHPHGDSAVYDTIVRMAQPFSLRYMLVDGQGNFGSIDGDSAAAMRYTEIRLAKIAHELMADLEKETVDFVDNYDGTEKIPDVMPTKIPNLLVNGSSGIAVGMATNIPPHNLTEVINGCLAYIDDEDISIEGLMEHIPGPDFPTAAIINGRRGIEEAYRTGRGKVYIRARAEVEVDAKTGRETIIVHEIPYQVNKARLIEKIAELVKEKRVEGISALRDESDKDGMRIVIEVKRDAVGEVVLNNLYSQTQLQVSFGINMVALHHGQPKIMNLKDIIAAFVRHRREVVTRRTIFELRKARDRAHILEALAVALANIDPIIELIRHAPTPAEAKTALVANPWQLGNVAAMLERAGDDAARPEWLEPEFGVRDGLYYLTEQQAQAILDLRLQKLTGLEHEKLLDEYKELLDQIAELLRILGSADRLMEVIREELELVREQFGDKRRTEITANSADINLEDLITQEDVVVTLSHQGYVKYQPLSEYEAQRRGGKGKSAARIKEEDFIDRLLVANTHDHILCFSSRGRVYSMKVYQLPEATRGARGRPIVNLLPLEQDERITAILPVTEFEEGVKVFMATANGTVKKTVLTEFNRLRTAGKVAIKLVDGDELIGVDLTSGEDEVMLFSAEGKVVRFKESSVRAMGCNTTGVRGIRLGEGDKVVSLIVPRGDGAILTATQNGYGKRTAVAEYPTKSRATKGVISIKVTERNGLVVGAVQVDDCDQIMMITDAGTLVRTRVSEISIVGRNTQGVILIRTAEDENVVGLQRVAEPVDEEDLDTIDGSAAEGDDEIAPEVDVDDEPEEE

In one assay the target is S. aureus (SAU) GyrB ATPase (Staphylococcus aureus, UniProt P0A0K8). As to the kind of experiment: S. aureus GyrB ATPase inhibition, ammonium molybdate/malachite green phosphate detection assay. The format is biochemical. To be noted: compound concentration 12.5 μM; 12.5 µM. Here is the method:
Compounds were tested for inhibition of GyrB ATPase activity using an ammonium molybdate/malachite green-based phosphate detection assay (Lanzetta, P. A., L. J. Alvarez, P. S. Reinach, and O. A. Candia, 1979, 100: 95-97). Assays were performed in multiwell plates in 100 μl reactions containing: 50 mM Hepes buffer pH 7.5, 75 mM ammonium acetate, 8.0 mM magnesium chloride, 1.0 mM ethylenediaminetetraacetic acid, 5% glycerol, 2 mM 1,4-Dithio-DL-threitol, 400 nM bovine serum albumin, 5 μg/ml sheared salmon sperm DNA, 1.25 nM E. coli GyrA, 1.25 nM S. aureus GyrB, 500 μM ATP, and compound in dimethylsulfoxide. Reactions were quenched with 150 μl of ammonium molybdate/malachite green detection reagent containing 1.2 mM malachite green hydrochloride, 8.5 mM ammonium molybdate tetrahydrate, and 1 M hydrochloric acid. Plates were read in an absorbance plate reader at 650 nm and percent inhibition values were calculated using dimethylsulfoxide (2%)-containing reactions as 0% inhibition and novobiocin-containing (2 μM) reactions as 100% inhibition controls. Compound potency was based on IC50 measurements determined from reactions performed in the presence of 10 different compound concentrations.
As for `CCNC(=O)Nc1ccc(-c2nc(-c3ncnn3C)c(C(=O)O)s2)cn1` [Example 147, 2-(6-{[(ethylamino)carbonyl]amino}pyridin-3-yl)-4-(1-methyl-1H-1,2,4-triazol-5-yl)-1,3-thiazole-5-carboxylic acid], the “S. aureus (SAU) GyrB ATPase % Inhibition” value is 94.65%.

The same assay, now with this note: read-out: S. aureus (SAU) GyrB ATPase % Inhibition, compound concentration 12.5 μM.
With `CCNC(=O)Nc1cc(-c2nc(C(F)(F)F)cs2)c(-c2cncc(C(=O)N[C@@H](C)COC)c2)cn1` [Example 124, 6′-{[(Ethylamino)carbonyl]amino}-N-[(1S)-2-methoxy-1-methylethyl]-4′-[4-(trifluoromethyl)-1,3-thiazol-2-yl]-3,3′-bipyridine-5-carboxamide], the inhibition at 12.5 µM stood at 95.1%. The same measure, in the same setting: the figure for `CCNC(=O)Nc1cc(-c2nc(C(F)(F)F)cs2)c(-c2cncc(C(N)=O)c2)cn1` [Example 121, 6′-{[(Ethylamino)carbonyl]amino}-4′-[4-(trifluoromethyl)-1,3-thiazol-2-yl]-3,3′-bipyridine-5-carboxamide] is 81.8%; for `CCNC(=O)Nc1cccc(-c2cccc(C(=O)N(C)C)c2)n1` [Example 156, 3-(6-{[(ethylamino)carbonyl]amino}pyridin-2-yl)-N,N-dimethylbenzamide] it is 43%. Take `CCNC(=O)Nc1ccc(-c2nc(C(=O)N(C)C)c(C(=O)N(C)C)s2)cn1` [Example 57, 2-[6-(3-Ethyl-ureido)-pyridin-3-yl]-thiazole-4,5-dicarboxylic acid bis-dimethylamide]: the inhibition at 12.5 µM is 80.1%. `CCNC(=O)Nc1cc(-c2nc(C(F)(F)F)cs2)c(-c2cncc(C(=O)NC)c2)cn1` [Example 122, 6′-{[(Ethylamino)carbonyl]amino}-N-methyl-4′-[4-(trifluoromethyl)-1,3-thiazol-2-yl]-3,3′-bipyridine-5-carboxamide]: the inhibition at 12.5 µM stood at 85.8%.

For the compound `CCNC(=O)Nc1nc(-c2cccc(C(=O)O)c2)cs1` [Example 142, 3-(2-{[(ethylamino)carbonyl]amino}-1,3-thiazol-4-yl)benzoic acid], the inhibition at 12.5 µM came out at 0.68%.

As for `CCNC(=O)Nc1ccc(-c2nc(C(=O)NC(C)(C)C)c(C(=O)OCC)s2)cn1` [Example 76, Ethyl 4-[(tert-butylamino)carbonyl]-2-(6-{[(ethylamino)carbonyl]amino}pyridin-3-yl)-1,3-thiazole-5-carboxylate], the inhibition at 12.5 µM came out at 88.2%. The same measure, in the same setting: the figure for `CCNC(=O)Nc1cc(-c2cccc(C(=O)OCC)c2)ccn1` [Example 137, ethyl 3-(2-{[(ethylamino)carbonyl]amino}pyridin-4-yl)benzoate] is 86.9%; for `CCNC(=O)Nc1cc(-c2ccc(F)nc2)c(-c2cncc(C(=O)OCC)c2)cn1` [Example 86, Ethyl 6′-{[(ethylamino)carbonyl]amino}-6″-fluoro-3,3′:4′,3″-terpyridine-5-carboxylate] it is 99.9%; for `CCNC(=O)Nc1cccc(-c2cccc(C(=O)OCC)c2)n1` [Example 15, Ethyl 3-(6-{[(ethylamino)carbonyl]amino}pyridin-2-yl)benzoate] it is 97.9%.

For `CCNC(=O)Nc1ccc(-c2nc(C(N)=O)c(C(N)=O)s2)cn1` [Example 152, 2-(6-{[(ethylamino)carbonyl]amino}pyridin-3-yl)-1,3-thiazole-4,5-dicarboxamide], the inhibition at 12.5 µM stood at 69.4%. In the case of `CCNC(=O)Nc1ccc(-c2ccc3nc(C)c(C(=O)O)n3c2)cn1` [Example 148, 6-(6-{[(ethylamino)carbonyl]amino}pyridin-3-yl)-2-methylimidazo[1,2-a]pyridine-3-carboxylic acid], the inhibition at 12.5 µM is 94.2%. Same read-out and setting: the figure for `CCNC(=O)Nc1ccc(-c2nc(C(=O)N(C)C)c(C(=O)NC(C)(C)C)s2)cn1` [Example 159, N^5-(tert-butyl)-2-(6-{[(ethylamino)carbonyl]amino}pyridin-3-yl)-N^4,N^4-dimethyl-1,3-thiazole-4,5-dicarboxamide] is 95.3%; for `CCNC(=O)Nc1ccc(-c2ccc3nc(C)c(C(=O)OCC)n3c2)cn1` [Example 139, ethyl 6-(6-{[(ethylamino)carbonyl]amino}pyridin-3-yl)-2-methylimidazo[1,2-a]pyridine-3-carboxylate] it is 96.7%. Still for that read-out and setting: as for `CCNC(=O)Nc1cc(-c2ccccc2)c(-c2cncc(C(=O)OCC)c2)cn1` [Example 77, Ethyl 6′-{[(ethylamino)carbonyl]amino}-4′-phenyl-3,3′-bipyridine-5-carboxylate], the figure is 101%; as for `CCNC(=O)Nc1ncc(-c2cccc(C(=O)OC)c2)cn1` [Example 13, Methyl 3-(2-{[(ethylamino)carbonyl]amino}pyrimidin-5-yl)benzoate], 99%. As to `CCNC(=O)Nc1cc(-c2ccccc2)c(-c2cncc(C(N)=O)c2)cn1` [Example 114, 6′-{[(Ethylamino)carbonyl]amino}-4′-phenyl-3,3′-bipyridine-5-carboxamide], the inhibition at 12.5 µM is 105%. On to `CCNC(=O)Nc1ccc(-c2nc(C(=O)OCC)cs2)cn1` [Example 2, Ethyl 2-(6-{[(ethylamino)carbonyl]amino}pyridin-3-yl)-1,3-thiazole-4-carboxylate], for which the inhibition at 12.5 µM is 99.1%. The same measure, in the same setting: as for `CCNC(=O)Nc1ccc(-c2nc(C(=O)NC3CC3)c(C(=O)O)s2)cn1` [Example 25, 4-[(Cyclopropylamino)carbonyl]-2-(6-{[(ethylamino)carbonyl]amino}pyridin-3-yl)-1,3-thiazole-5-carboxylic acid], the figure is 99.5%. Same read-out and setting: the figure for `CCNC(=O)Nc1cc(-c2ccc(C(=O)OCC)cc2)ccn1` [Example 138, ethyl 4-(2-{[(ethylamino)carbonyl]amino}pyridin-4-yl)benzoate] is 94.8%. On the same count and under the same terms, as for `CCNC(=O)Nc1ccc(-c2nc(-c3ncnn3C)c(C(=O)OC)s2)cn1` [Example 72, Methyl 2-(6-{[(ethylamino)carbonyl]amino}pyridin-3-yl)-4-(1-methyl-1H-1,2,4-triazol-5-yl)-1,3-thiazole-5-carboxylate], the figure is 80.3%; as for `CCNC(=O)Nc1ccc(-c2ccc3nc(C(=O)OC)cn3c2)cn1` [Example 12, Methyl 6-(6-{[(ethylamino)carbonyl]amino}pyridin-3-yl)imidazo[1,2-a]pyridine-2-carboxylate], 92.6%. Turning to `CCNC(=O)Nc1ncc(-c2cccc(C(=O)O)c2)cn1` [Example 29, 3-(2-{[(Ethylamino)carbonyl]amino}pyrimidin-5-yl)benzoic acid], the inhibition at 12.5 µM turned out to be 13.6%. For the compound `CCNC(=O)Nc1ccc(-c2ccc3c(c2)c(=O)c(C(=O)O)cn3CCN2CCOCC2)cn1` [Example 48, 6-(6-(3-ethylureido)pyridin-3-yl)-1-(2-morpholinoethyl)-4-oxo-1,4-dihydroquinoline-3-carboxylic acid], the inhibition at 12.5 µM came to 101%. On to `CCNC(=O)Nc1ccc(-c2nc3cccc(C(=O)O)c3s2)cn1` [Example 20, 2-(6-{[(Ethylamino)carbonyl]amino}pyridin-3-yl)-1,3-benzothiazole-7-carboxylic acid], for which the inhibition at 12.5 µM was 98.4%. Still for that read-out and setting: as for `CCNC(=O)Nc1ccc(-c2nc(C(C)=O)c(C(=O)N(C)C)s2)cn1` [Example 153, 4-acetyl-2-(6-{[(ethylamino)carbonyl]amino}pyridin-3-yl)-N,N-dimethyl-1,3-thiazole-5-carboxamide], the figure is 71.4%. The same measure, in the same setting: as for `CCNC(=O)Nc1ccc(-c2nc(-c3ncnn3C)c(C(N)=O)s2)cn1` [Example 157, 2-(6-{[(ethylamino)carbonyl]amino}pyridin-3-yl)-4-(1-methyl-1H-1,2,4-triazol-5-yl)-1,3-thiazole-5-carboxamide], the figure is 101%. In the case of `CCNC(=O)Nc1cc(-c2nc(C(F)(F)F)cs2)c(-c2ncc(C(=O)O)s2)cn1` [Example 102, 2-{6-{[(Ethylamino)carbonyl]amino}-4-[4-(trifluoromethyl)-1,3-thiazol-2-yl]pyridin-3-yl}-1,3-thiazole-5-carboxylic acid], the inhibition at 12.5 µM amounted to 98.2%. As to `CCC(C)NC(=O)Nc1cc(-c2nc(C(F)(F)F)cs2)c(-c2cncc(C(=O)NC)c2)cn1` (stereo not drawn) [Example 130, 6′-{[(Sec-butylamino)carbonyl]amino}-N-methyl-4′-[4-(trifluoromethyl)-1,3-thiazol-2-yl]-3,3′-bipyridine-5-carboxamide], the inhibition at 12.5 µM came out at 98.7%. As to `CCNC(=O)Nc1ccc(-c2nc(C(=O)NC)c(C(=O)OC(C)C)s2)cn1` [Example 8, Isopropyl 2-(6-{[(ethylamino)carbonyl]amino}pyridin-3-yl)-4-[(methylamino)carbonyl]-1,3-thiazole-5-carboxylate], the inhibition at 12.5 µM was 81.5%. Consider `CCNC(=O)Nc1cc(-c2ccc(F)nc2)c(-c2cncc(C(N)=O)c2)cn1` [Example 128, 6′-{[(Ethylamino)carbonyl]amino}-6″-fluoro-3,3′:4′,3″-terpyridine-5-carboxamide], for which the inhibition at 12.5 µM was 91.5%. On the same count and under the same terms, the figure for `CCCCn1cc(C(=O)O)c(=O)c2cc(-c3ccc(NC(=O)NCC)nc3)ccc21` [Example 47, 1-Butyl-6-(6-(3-ethylureido)pyridin-3-yl)-4-oxo-1,4-dihydroquinoline-3-carboxylic acid] is 91.7%.
